Experimental data taken from US10138251B2, “Spiro[3H-indole-3,2′-pyrrolidin]-2(1H)-one compounds and derivatives as MDM2-P53 inhibitors” (Boehringer Ingelheim International GmbH, priority 2014, dated 2018).

Molecular target: T1, MDM2 (Homo sapiens, UniProt Q00987)
T1 construct: 20 nM GST-MDM2 protein (aa 23-117)
Test: Mdm2-p53 Inhibition AlphaScreen
Assay type: binding
Settings: 20 nM GST-MDM2 protein (aa 23-117), 20 nM biotinylated p53 wt peptide
Protocol: Mdm2-p53 Inhibition AlphaScreen
15 μL of compound in 20% DMSO (serial pre-dilutions of compound are done in 100% DMSO) is pipetted to the wells of a white OptiPlate-96 (PerkinElmer). A mix consisting of 20 nM GST-MDM2 protein (aa 23-117) and 20 nM biotinylated p53 wt peptide (encompassing aa 16-27 of wt human p53, amino acid sequence QETFSDLWKLLP-Ttds-Lys-Biotin, molecular weight 2132.56 g/mol) is prepared in assay buffer (50 mM Tris/HCl pH 7.2; 120 mM NaCl; 0.1% bovine serum albumin (BSA); 5 mM dithiothreitol (DTT); 1 mM ethylenediaminetetraacetic acid (EDTA); 0.01% Tween 20). 30 μL of the mix is added to the compound dilutions and incubated for 15 min at rt while gently shaking the plate at 300 rounds per minute (rpm). Subsequently, 15 μL of premixed AlphaLISA Glutathione Acceptor Beads and AlphaScreen Streptavidin Donor Beads from PerkinElmer (in assay buffer at a concentration of 10 μg/mL each) are added and the samples are incubated for 30 min at rt in the dark (shaking 300 rpm). Afterwards, the signal is measured in a PerkinElmer Envision HTS Multilabel Reader using the AlphaScreen protocol from PerkinElmer.
Each plate contains negative controls where biotinylated p53-peptide and GST-MDM2 are left out and replaced by assay buffer. Negative control values are entered as low basis value when using the software GraphPad Prism for calculations. Furthermore, a positive control (5% DMSO instead of test compound; with protein/peptide mix) is pipetted. Determination of IC50 values are carried out using GraphPad Prism 3.03 software (or updates thereof).

T1 sequence (Q00987 23-117): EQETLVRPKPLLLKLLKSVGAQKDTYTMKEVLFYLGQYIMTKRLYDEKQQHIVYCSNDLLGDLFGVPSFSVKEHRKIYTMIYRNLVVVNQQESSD

CCOC(=O)c1ccc([C@H]2C[C@H]3[C@@H](N2)[C@H](c2cccc(Cl)c2F)[C@]2(C(=O)Nc4cc(Cl)c(F)cc42)N3CC2CC2)cc1 [Compound I-13]
IC50: 623 nM

O=C1Nc2nc(Cl)ccc2[C@@]12[C@@H](c1cccc(Cl)c1F)[C@@H]1NCC[C@@H]1N2CC1CC1 [Compound I-23]
IC50: 871 nM

O=C(O)c1ccc([C@H]2C[C@H]3[C@@H](N2)[C@H](c2cccc(Cl)c2)[C@]2(C(=O)Nc4cc(Cl)ccc42)N3CC2CC2)cc1 [Compound I-24]
IC50: 23 nM

O=C(O)c1ccc([C@@H]2C[C@H]3[C@@H](N2)[C@H](c2cccc(Cl)c2)[C@]2(C(=O)Nc4cc(Cl)ccc42)N3CC2CC2)cc1 [Compound I-25]
IC50: 49 nM

COc1cc(C(=O)O)ccc1[C@@H]1C[C@H]2[C@@H](N1)[C@H](c1cccc(Cl)c1)[C@]1(C(=O)Nc3cc(Cl)ccc31)N2CC1CC1 [Compound I-26]
IC50: 173 nM

O=C(O)c1cccc([C@H]2C[C@H]3[C@@H](N2)[C@H](c2cccc(Cl)c2)[C@]2(C(=O)Nc4cc(Cl)ccc42)N3CC2CC2)c1 [Compound I-27]
IC50: 32 nM

O=C(O)c1cccc([C@@H]2C[C@H]3[C@@H](N2)[C@H](c2cccc(Cl)c2)[C@]2(C(=O)Nc4cc(Cl)ccc42)N3CC2CC2)c1 [Compound I-28]
IC50: 249 nM

O=C(O)c1ccc([C@H]2C[C@H]3[C@@H](N2)[C@H](c2cccc(Cl)c2F)[C@]2(C(=O)Nc4cc(Cl)ccc42)N3CC2CC2)cc1 [Compound I-29]
IC50: 5 nM

O=C(O)c1ccc([C@@H]2C[C@H]3[C@@H](N2)[C@H](c2cccc(Cl)c2F)[C@]2(C(=O)Nc4cc(Cl)ccc42)N3CC2CC2)cc1 [Compound I-30]
IC50: 41 nM

COc1cc([C@@H]2C[C@@H]3[C@H](N2)[C@@H](c2cccc(Cl)c2F)[C@@]2(C(=O)Nc4cc(Cl)ccc42)N3CC2CC2)ccc1C(=O)O [Compound I-32]
IC50: 373 nM

O=C(O)c1ccc([C@H]2C[C@H]3[C@@H](N2)[C@H](c2cccc(Cl)c2F)[C@]2(C(=O)Nc4cc(Cl)c(F)cc42)N3CC2CC2)cc1 [Compound I-35]
IC50: 9 nM

CCOc1cccc(CN2[C@H]3C[C@H](c4ccc(C(=O)O)cc4)N[C@H]3[C@H](c3cccc(Cl)c3F)[C@]23C(=O)Nc2cc(Cl)ccc23)c1 [Compound I-36]
IC50: 4 nM

CCOc1cccc(CN2[C@H]3C[C@@H](c4ccc(C(=O)O)cc4)N[C@H]3[C@H](c3cccc(Cl)c3F)[C@]23C(=O)Nc2cc(Cl)ccc23)c1 [Compound I-37]
IC50: 5 nM

CCOc1cccc(CN2[C@H]3C[C@H](c4ccc(C(=O)O)cc4)N[C@H]3[C@H](c3cccc(Cl)c3F)[C@]23C(=O)Nc2cc(Cl)ccc23)c1 [Compound I-38]
IC50: 2 nM

O=C(O)c1ccc([C@H]2CC[C@H]3[C@@H](N2)[C@H](c2cccc(Cl)c2F)[C@]2(C(=O)Nc4cc(Cl)ccc42)N3CC2CC2)cc1 [Compound I-39]
IC50: 124 nM

O=C(O)c1ccc([C@@H]2CC[C@H]3[C@@H](N2)[C@H](c2cccc(Cl)c2F)[C@]2(C(=O)Nc4cc(Cl)ccc42)N3CC2CC2)cc1 [Compound I-40]
IC50: 133 nM

O=C(O)C[C@H]1C[C@H]2[C@@H](N1)[C@H](c1cccc(Cl)c1)[C@]1(C(=O)Nc3cc(Cl)ccc31)N2CC1CC1 [Compound I-46]
IC50: 280 nM

O=C(O)C[C@@H]1C[C@H]2[C@@H](N1)[C@H](c1cccc(Cl)c1)[C@]1(C(=O)Nc3cc(Cl)ccc31)N2CC1CC1 [Compound I-47]
IC50: 280 nM

O=C(O)CN1CC[C@H]2[C@@H]1[C@H](c1cccc(Cl)c1)[C@]1(C(=O)Nc3cc(Cl)ccc31)N2CC1CC1 [Compound I-60]
IC50: 85 nM

O=C(O)C1CCC(CN2CC[C@H]3[C@@H]2[C@H](c2cccc(Cl)c2F)[C@]2(C(=O)Nc4cc(Cl)ccc42)N3CC2CC2)CC1 (some centres unmarked) [Compound I-61]
IC50: 274 nM

CCOc1cccc(CN2[C@H]3CCN(CC4CCC(C(=O)O)CC4)[C@H]3[C@H](c3cccc(Cl)c3F)[C@]23C(=O)Nc2cc(Cl)ccc23)c1 (some centres unmarked) [Compound I-62]
IC50: 24 nM

O=C(O)C1CC1CN1CC[C@H]2[C@@H]1[C@H](c1cccc(Cl)c1F)[C@]1(C(=O)Nc3cc(Cl)ccc31)N2CC1CC1 (some centres unmarked) [Compound I-63]
IC50: 130 nM

CCOc1cccc(CN2[C@H]3CCN(CC4CC4C(=O)O)[C@H]3[C@H](c3cccc(Cl)c3F)[C@]23C(=O)Nc2cc(Cl)ccc23)c1 (some centres unmarked) [Compound I-64]
IC50: 6 nM

CCOc1cccc(CN2[C@H]3CCN(CC4CC4C(=O)O)[C@H]3[C@H](c3cccc(Cl)c3F)[C@]23C(=O)Nc2cc(Cl)ccc23)c1 (some centres unmarked) [Compound I-65]
IC50: 3 nM

CCOc1cccc(CN2[C@@H]3CCN(CC4CC4C(=O)O)[C@@H]3[C@@H](c3cccc(Cl)c3F)[C@@]23C(=O)Nc2cc(Cl)ccc23)c1 (some centres unmarked) [Compound I-66]
IC50: 209 nM

O=C(O)CN1CC[C@H]2[C@@H]1[C@H](c1cccc(Cl)c1F)[C@]1(C(=O)Nc3cc(Cl)ccc31)N2CC1CC1 [Compound I-67]
IC50: 40 nM

O=C(O)c1ccc(CN2CC[C@H]3[C@@H]2[C@H](c2cccc(Cl)c2F)[C@]2(C(=O)Nc4cc(Cl)ccc42)N3CC2CC2)cc1 [Compound I-68]
IC50: 91 nM

CCOc1cccc(CN2[C@H]3CCN(CC(=O)O)[C@H]3[C@H](c3cccc(Cl)c3F)[C@]23C(=O)Nc2cc(Cl)ccc23)c1 [Compound I-69]
IC50: 3 nM

CCOc1cccc(CN2[C@H]3CCN(CC(=O)O)[C@H]3[C@H](c3cccc(Cl)c3F)[C@]23C(=O)Nc2cc(Cl)ccc23)c1 [Compound I-70]
IC50: 2 nM

CCOc1cccc(CN2[C@@H]3CCN(CC(=O)O)[C@@H]3[C@@H](c3cccc(Cl)c3F)[C@@]23C(=O)Nc2cc(Cl)ccc23)c1 [Compound I-71]
IC50: 722 nM

O=C(O)c1[nH]ncc1CN1CC[C@H]2[C@@H]1[C@H](c1cccc(Cl)c1F)[C@]1(C(=O)Nc3cc(Cl)ccc31)N2CC1CC1 [Compound I-72]
IC50: 1300 nM

CCOc1cccc(CN2[C@H]3CCN(Cc4cn[nH]c4C(=O)O)[C@H]3[C@H](c3cccc(Cl)c3F)[C@]23C(=O)Nc2cc(Cl)ccc23)c1 [Compound I-73]
IC50: 29 nM

CCOc1cccc(CN2[C@H]3CCN(CC4CC4C(N)=O)[C@H]3[C@H](c3cccc(Cl)c3F)[C@]23C(=O)Nc2cc(Cl)ccc23)c1 (some centres unmarked) [Compound I-74]
IC50: 21 nM

NC(=O)c1ccc([C@H]2C[C@H]3[C@@H](N2)[C@H](c2cccc(Cl)c2F)[C@]2(C(=O)Nc4cc(Cl)ccc42)N3CC2CC2)cc1 [Compound I-75]
IC50: 16 nM

CC(=O)N1CC[C@H]2C1[C@H](c1cccc(Cl)c1F)[C@]1(C(=O)Nc3cc(Cl)ccc31)N2CC1CC1 (some centres unmarked) [Compound I-76]
IC50: 212 nM

COCC(=O)N1CC[C@H]2C1[C@H](c1cccc(Cl)c1F)[C@]1(C(=O)Nc3cc(Cl)ccc31)N2CC1CC1 (some centres unmarked) [Compound I-77]
IC50: 119 nM

CN(C)CC(=O)N1CC[C@H]2C1[C@H](c1cccc(Cl)c1F)[C@]1(C(=O)Nc3cc(Cl)ccc31)N2CC1CC1 (some centres unmarked) [Compound I-78]
IC50: 381 nM

O=C(Cc1cccnc1)N1CC[C@H]2C1[C@H](c1cccc(Cl)c1F)[C@]1(C(=O)Nc3cc(Cl)ccc31)N2CC1CC1 (some centres unmarked) [Compound I-79]
IC50: 386 nM

O=C(c1ncccn1)N1CC[C@H]2C1[C@H](c1cccc(Cl)c1F)[C@]1(C(=O)Nc3cc(Cl)ccc31)N2CC1CC1 (some centres unmarked) [Compound I-80]
IC50: 596 nM

CC(=O)Nc1ccc(C(=O)N2CC[C@H]3C2[C@H](c2cccc(Cl)c2F)[C@]2(C(=O)Nc4cc(Cl)ccc42)N3CC2CC2)c(C)c1 (some centres unmarked) [Compound I-81]
IC50: 444 nM

CC(=O)Nc1ccc(C(=O)N2CC[C@H]3C2[C@H](c2cccc(Cl)c2F)[C@]2(C(=O)Nc4cc(Cl)ccc42)N3CC2CC2)cc1 (some centres unmarked) [Compound I-82]
IC50: 389 nM

O=C(CCO)N1CC[C@H]2C1[C@H](c1cccc(Cl)c1F)[C@]1(C(=O)Nc3cc(Cl)ccc31)N2CC1CC1 (some centres unmarked) [Compound I-83]
IC50: 102 nM

CN(C)C(=O)CCC(=O)N1CC[C@H]2C1[C@H](c1cccc(Cl)c1F)[C@]1(C(=O)Nc3cc(Cl)ccc31)N2CC1CC1 (some centres unmarked) [Compound I-84]
IC50: 107 nM

CN(C)c1cccc(C(=O)N2CC[C@H]3C2[C@H](c2cccc(Cl)c2F)[C@]2(C(=O)Nc4cc(Cl)ccc42)N3CC2CC2)c1 (some centres unmarked) [Compound I-87]
IC50: 607 nM

CCOc1cccc(CN2[C@H]3CCN(C(C)=O)C3[C@H](c3cccc(Cl)c3F)[C@]23C(=O)Nc2cc(Cl)ccc23)c1 (some centres unmarked) [Compound I-88]
IC50: 28 nM

CC(=O)N1CC[C@H]2C1[C@H](c1ccnc(Cl)c1F)[C@]1(C(=O)Nc3cc(Cl)ccc31)N2CC1CC1 (some centres unmarked) [Compound I-89]
IC50: 34 nM

CCOc1cccc(CN2[C@H]3CCN(C(C)=O)C3[C@H](c3ccnc(Cl)c3F)[C@]23C(=O)Nc2cc(Cl)ccc23)c1 (some centres unmarked) [Compound I-90]
IC50: 6 nM

CCOc1cccc(CN2[C@H]3CCN(C(C)=O)C3[C@H](c3cccc(Cl)c3F)[C@]23C(=O)Nc2cc(Cl)ccc23)n1 (some centres unmarked) [Compound I-91]
IC50: 180 nM

O=C(O)c1ccc(C(=O)N2CC[C@H]3C2[C@H](c2cccc(Cl)c2F)[C@]2(C(=O)Nc4cc(Cl)ccc42)N3CC2CC2)cc1 (some centres unmarked) [Compound I-92]
IC50: 106 nM

O=C(O)c1cccc(C(=O)N2CC[C@H]3C2[C@H](c2cccc(Cl)c2F)[C@]2(C(=O)Nc4cc(Cl)ccc42)N3CC2CC2)c1 (some centres unmarked) [Compound I-93]
IC50: 377 nM
